{"source": "PubChem BioAssay (NCI)", "experiment_in_all_cases": "NCI anticancer screen, dose series, 48 h", "key": {"HOP-62 NSCLC": {"system": "HOP-62 NSCLC"}, "MALME-3M melanoma": {"system": "MALME-3M melanoma"}, "EKVX NSCLC": {"system": "EKVX NSCLC"}, "HT29 colon": {"system": "HT29 colon"}, "K-562 leukemia": {"system": "K-562 leukemia"}, "U251 CNS": {"system": "U251 CNS"}, "HCC-2998 colon": {"system": "HCC-2998 colon"}, "SN12C renal": {"system": "SN12C renal"}, "RXF 393 renal": {"system": "RXF 393 renal"}, "SK-OV-3 ovarian": {"system": "SK-OV-3 ovarian"}, "SNB-75 CNS": {"system": "SNB-75 CNS"}, "A498 renal": {"system": "A498 renal"}, "CCRF-CEM leukemia": {"system": "CCRF-CEM leukemia"}, "TK-10 renal": {"system": "TK-10 renal"}, "KM20L2 colon": {"system": "KM20L2 colon"}, "DMS 114 small cell lung": {"system": "DMS 114 small cell lung"}, "HCT-116 colon": {"system": "HCT-116 colon"}, "SK-MEL-2 melanoma": {"system": "SK-MEL-2 melanoma"}, "SK-MEL-5 melanoma": {"system": "SK-MEL-5 melanoma"}, "NCI-H460 lung": {"system": "NCI-H460 lung"}, "LXFL 529 NSCLC": {"system": "LXFL 529 NSCLC"}, "SNB-78 CNS": {"system": "SNB-78 CNS"}, "CAKI-1 renal": {"system": "CAKI-1 renal"}, "NCI-H226 lung": {"system": "NCI-H226 lung"}, "KM12 colon": {"system": "KM12 colon"}, "UACC-257 melanoma": {"system": "UACC-257 melanoma"}, "SF-295 CNS": {"system": "SF-295 CNS"}, "786-0 renal": {"system": "786-0 renal"}, "NCI-H522 lung": {"system": "NCI-H522 lung"}, "A549 NSCLC": {"system": "A549 NSCLC"}, "M14 melanoma": {"system": "M14 melanoma"}, "M19-MEL melanoma": {"system": "M19-MEL melanoma"}, "ACHN renal": {"system": "ACHN renal"}, "IGROV1 ovarian": {"system": "IGROV1 ovarian"}, "RPMI-8226 leukemia": {"system": "RPMI-8226 leukemia"}, "OVCAR-8 ovarian": {"system": "OVCAR-8 ovarian"}, "LOX IMVI melanoma": {"system": "LOX IMVI melanoma"}, "SW-620 colon": {"system": "SW-620 colon"}, "SF-268 CNS": {"system": "SF-268 CNS"}, "MOLT-4 leukemia": {"system": "MOLT-4 leukemia"}, "HCT-15 colon": {"system": "HCT-15 colon"}, "SF-539 CNS": {"system": "SF-539 CNS"}, "DMS 273 small cell lung": {"system": "DMS 273 small cell lung"}, "XF 498 CNS": {"system": "XF 498 CNS"}, "SNB-19 CNS": {"system": "SNB-19 CNS"}, "OVCAR-5 ovarian": {"system": "OVCAR-5 ovarian"}, "DLD-1 colon": {"system": "DLD-1 colon"}, "UO-31 renal": {"system": "UO-31 renal"}, "OVCAR-3 ovarian": {"system": "OVCAR-3 ovarian"}, "UACC-62 melanoma": {"system": "UACC-62 melanoma"}, "COLO 205 colon": {"system": "COLO 205 colon"}}, "note": "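Tested at 5 concentrations; 48 h exposure; 96-well plates; endpoints linearly interpolated, else capped at highest concentration. Definition used: TGI = concentration required for complete inhibition of growth.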", "data": [{"smiles": "CCO/N=C(/N)c1ncn(Cc2ccccc2)c1NCC(OCC)OCC", "values": [{"measurement": "TGI", "setting": "HOP-62 NSCLC", "result": "> 100", "unit": "µM"}, {"measurement": "TGI", "setting": "MALME-3M melanoma", "result": "> 100", "unit": "µM"}, {"measurement": "TGI", "setting": "EKVX NSCLC", "result": "> 100", "unit": "µM"}, {"measurement": "TGI", "setting": "HT29 colon", "result": "> 100", "unit": "µM"}, {"measurement": "TGI", "setting": "K-562 leukemia", "result": "> 100", "unit": "µM"}, {"measurement": "TGI", "setting": "U251 CNS", "result": "> 100", "unit": "µM"}, {"measurement": "TGI", "setting": "HCC-2998 colon", "result": "> 100", "unit": "µM"}, {"measurement": "TGI", "setting": "SN12C renal", "result": "> 100", "unit": "µM"}, {"measurement": "TGI", "setting": "RXF 393 renal", "result": 99.5, "unit": "µM"}, {"measurement": "TGI", "setting": "SK-OV-3 ovarian", "result": "> 100", "unit": "µM"}, {"measurement": "TGI", "setting": "SNB-75 CNS", "result": "> 100", "unit": "µM"}, {"measurement": "TGI", "setting": "A498 renal", "result": "> 100", "unit": "µM"}, {"measurement": "TGI", "setting": "CCRF-CEM leukemia", "result": "> 100", "unit": "µM"}, {"measurement": "TGI", "setting": "TK-10 renal", "result": "> 100", "unit": "µM"}, {"measurement": "TGI", "setting": "KM20L2 colon", "result": "> 100", "unit": "µM"}, {"measurement": "TGI", "setting": "DMS 114 small cell lung", "result": "> 100", "unit": "µM"}, {"measurement": "TGI", "setting": "HCT-116 colon", "result": "> 100", "unit": "µM"}, {"measurement": "TGI", "setting": "SK-MEL-2 melanoma", "result": "> 100", "unit": "µM"}, {"measurement": "TGI", "setting": "SK-MEL-5 melanoma", "result": "> 100", "unit": "µM"}, {"measurement": "TGI", "setting": "NCI-H460 lung", "result": "> 100", "unit": "µM"}, {"measurement": "TGI", "setting": "LXFL 529 NSCLC", "result": "> 100", "unit": "µM"}, {"measurement": "TGI", "setting": "SNB-78 CNS", "result": "> 100", "unit": "µM"}, {"measurement": "TGI", "setting": "CAKI-1 renal", "result": "> 100", "unit": "µM"}, {"measurement": "TGI", "setting": "NCI-H226 lung", "result": "> 100", "unit": "µM"}, {"measurement": "TGI", "setting": "KM12 colon", "result": "> 100", "unit": "µM"}, {"measurement": "TGI", "setting": "UACC-257 melanoma", "result": "> 100", "unit": "µM"}, {"measurement": "TGI", "setting": "SF-295 CNS", "result": "> 100", "unit": "µM"}, {"measurement": "TGI", "setting": "786-0 renal", "result": "> 100", "unit": "µM"}, {"measurement": "TGI", "setting": "NCI-H522 lung", "result": "> 100", "unit": "µM"}, {"measurement": "TGI", "setting": "A549 NSCLC", "result": "> 100", "unit": "µM"}, {"measurement": "TGI", "setting": "M14 melanoma", "result": "> 100", "unit": "µM"}, {"measurement": "TGI", "setting": "M19-MEL melanoma", "result": "> 100", "unit": "µM"}, {"measurement": "TGI", "setting": "ACHN renal", "result": "> 100", "unit": "µM"}, {"measurement": "TGI", "setting": "IGROV1 ovarian", "result": "> 100", "unit": "µM"}, {"measurement": "TGI", "setting": "RPMI-8226 leukemia", "result": "> 100", "unit": "µM"}, {"measurement": "TGI", "setting": "OVCAR-8 ovarian", "result": "> 100", "unit": "µM"}, {"measurement": "TGI", "setting": "LOX IMVI melanoma", "result": "> 100", "unit": "µM"}, {"measurement": "TGI", "setting": "SW-620 colon", "result": "> 100", "unit": "µM"}, {"measurement": "TGI", "setting": "SF-268 CNS", "result": "> 100", "unit": "µM"}, {"measurement": "TGI", "setting": "MOLT-4 leukemia", "result": "> 100", "unit": "µM"}, {"measurement": "TGI", "setting": "HCT-15 colon", "result": "> 100", "unit": "µM"}, {"measurement": "TGI", "setting": "SF-539 CNS", "result": "> 100", "unit": "µM"}, {"measurement": "TGI", "setting": "DMS 273 small cell lung", "result": "> 100", "unit": "µM"}, {"measurement": "TGI", "setting": "XF 498 CNS", "result": "> 100", "unit": "µM"}, {"measurement": "TGI", "setting": "SNB-19 CNS", "result": "> 100", "unit": "µM"}, {"measurement": "TGI", "setting": "OVCAR-5 ovarian", "result": "> 100", "unit": "µM"}, {"measurement": "TGI", "setting": "DLD-1 colon", "result": "> 100", "unit": "µM"}, {"measurement": "TGI", "setting": "UO-31 renal", "result": "> 100", "unit": "µM"}, {"measurement": "TGI", "setting": "OVCAR-3 ovarian", "result": "> 100", "unit": "µM"}, {"measurement": "TGI", "setting": "UACC-62 melanoma", "result": "> 100", "unit": "µM"}, {"measurement": "TGI", "setting": "COLO 205 colon", "result": "> 100", "unit": "µM"}]}]}
